Assay results reported in patent US10517898B2, “Compositions and methods related to hematologic recovery” (The Regents of the University of California, priority 2014, dated 2019).

Tested on: PTPσ^−/− BM cells
Assay: Transendothelial migration assay (CFCs from migrated cells in lower chamber)
Type: cell-based
Settings: 25 μM EHT1864, 16 hours culture, mouse spleen endothelial cell transwell, CFCs of migrated cells (FIG. 3D)
Method: Transendothelial migration assays were performed as follows. VeraVec™ mouse spleen endothelial cells (Angiocrine Bioscience, New York N.Y.) were cultured to confluence in […] pore transwells (Corning Incorporated, Corning N.Y.). Transwells were seeded with 200,000 BM cells in IMDM with 10% FBS, 1% penicillin-streptomycin, 125 ng/mL stem cell factor, 50 ng/mL Flt-3 ligand and 20 ng/mL thrombopoietin with or without 25 μM Rac inhibitor, EHT1864 (R&D Systems, Minneapolis, Minn.). 100 ng/mL SDF-1α (R&D) or media was added to the bottom chamber of the transwell. 16 hours post culture, cells in the bottom chamber were collected and CFCs were set up with the migrated cells.

O=c1cc(CN2CCOCC2)occ1OCCCCCSc1ccnc2cc(C(F)(F)F)ccc12 [EHT1864]
transendothelial migration capacity of PTPσ^−/− cells: completely abrogated
